Assay results from ChEMBL document CHEMBL1201862, “PubChem BioAssay data set” (2004).
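Step 1: Grow cells in 96-well plates. Step 2: Expose to compound for 48 hours at 5 concentrations. Step 3: Interpolate endpoints linearly; if unreached, use highest concentration. At the GI50, growth is halved.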 Active and inactive are the calls of the source. Rule as the data show it: active = GI50 up to about 1.1 µM and inactive = higher.

How the values were obtained:
Test in all cases: NCI tumour cell line growth inhibition, 48 h
[1] = system: MOLT-4
[2] = system: KM-20L2
[3] = system: KM12
[4] = system: HT-29
[5] = system: RPMI-8226
[6] = system: DMS-114
[7] = system: HCC 2998
[8] = system: K562
[9] = system: UACC-257
[10] = system: SF-539
[11] = system: COLO 205
[12] = system: M19-MEL
[13] = system: A549
[14] = system: SK-MEL-2
[15] = system: LXFL 529
[16] = system: SK-MEL-28
[17] = system: HOP-92
[18] = system: OVCAR-5
[19] = system: SNB-78
[20] = system: SK-OV-3
[21] = system: IGROV-1
[22] = system: HL-60
[23] = system: DMS-273
[24] = system: DLD-1
[25] = system: Malme-3M
[26] = system: HCT-116
[27] = system: RXF 631
[28] = system: SNB-19
[29] = system: CCRF-CEM
[30] = system: 786-0
[31] = system: NCI-H23
[32] = system: RXF 393
[33] = system: SW-620
[34] = system: HOP-62
[35] = system: LOX IMVI
[36] = system: U-251
[37] = system: XF498
[38] = system: A498
[39] = system: EKVX
[40] = system: OVCAR-8
[41] = system: SNB-75
[42] = system: OVCAR-3
[43] = system: TK-10
[44] = system: UO-31
[45] = system: NCI-H522
[46] = system: SF-268
[47] = system: SF-295
[48] = system: ACHN
[49] = system: HOP-18
[50] = system: NCI-H460
[51] = system: CAKI-1
[52] = system: OVCAR-4
[53] = system: M14
[54] = system: HCT-15
[55] = system: SN12C
[56] = system: SK-MEL-5
[57] = system: UACC-62

Measured: GI50

CC(C)CC(=O)N1CCN(C(=O)CC(C)C)c2ccccc21
inactive: [1] > 100 µM | [2] > 100 µM | [3] > 100 µM | [4] > 100 µM | [5] > 100 µM | [6] > 100 µM | [7] > 100 µM | [8] > 100 µM | [9] > 100 µM | [10] > 100 µM | [11] > 100 µM | [12] > 100 µM | [13] > 100 µM | [14] > 100 µM | [15] > 100 µM | [16] > 100 µM | [17] > 100 µM | [18] > 100 µM | [19] 91.6 µM | [20] > 100 µM | [21] > 100 µM | [22] > 100 µM | [23] > 100 µM | [24] > 100 µM | [25] > 100 µM | [26] > 100 µM | [27] > 100 µM | [28] > 100 µM | [29] > 100 µM | [30] > 100 µM | [31] > 100 µM | [32] > 100 µM | [33] > 100 µM | [34] > 100 µM | [35] > 100 µM | [36] > 100 µM | [37] > 100 µM | [38] > 100 µM | [39] > 100 µM | [40] > 100 µM | [41] > 100 µM | [42] > 100 µM | [43] > 100 µM | [44] > 100 µM | [45] > 100 µM | [46] > 100 µM | [47] > 100 µM | [48] > 100 µM | [49] 10.1 µM | [50] > 100 µM

CCc1cccc(C)c1NC(=O)NS(=O)(=O)c1ccc(C)cc1
> 100 µM: [54]
inactive: [1] > 100 µM | [2] > 100 µM | [3] > 100 µM | [5] > 100 µM | [6] > 100 µM | [7] > 100 µM | [8] > 100 µM | [9] > 100 µM | [51] > 100 µM | [10] > 100 µM | [11] > 100 µM | [12] > 100 µM | [13] > 100 µM | [14] > 100 µM | [15] > 100 µM | [16] > 100 µM | [17] > 100 µM | [18] > 100 µM | [19] > 100 µM | [20] > 100 µM | [21] > 100 µM | [22] > 100 µM | [23] > 100 µM | [24] > 100 µM | [52] > 100 µM | [25] > 100 µM | [26] > 100 µM | [27] > 100 µM | [28] > 100 µM | [29] > 100 µM | [30] > 100 µM | [31] > 100 µM | [32] > 100 µM | [53] > 100 µM | [33] > 100 µM | [34] > 100 µM | [35] > 100 µM | [36] > 100 µM | [37] > 100 µM | [55] > 100 µM | [38] > 100 µM | [39] > 100 µM | [40] > 100 µM | [41] 35.2 µM | [42] > 100 µM | [56] > 100 µM | [43] > 100 µM | [44] > 100 µM | [57] > 100 µM | [45] > 100 µM | [46] > 100 µM | [47] > 100 µM | [48] > 100 µM | [49] > 100 µM | [50] > 100 µM
